In patent publication US6096930A, “Herbicidal cyclohexane-1,3-dione derivatives and their preparation process” (Korea Research Institute of Chemical Technology, priority 1994, dated 2000):

How the values were obtained:
Experiment in all cases: Herbicidal activity, upland test, post-emergence
Format in all cases: in vivo
ABUTH = test system: ABUTH
Source text: (§1) The sterilized sandy loam soil is filled in test pot having a surface area of 348 cm^2 for upland test conditions or 115 cm^2 for paddy test species were planted in furrows.
(§2) The pots for the post-emergent tests were placed in a greenhouse and watered for 9~14 days, then the foliage of test plants was sprayed with a solution of the test compound in a mixture of acetone and water containing a small amount of Tween 20.
(§3) After spraying the plants were kept for one day, then watered regularly for 14 to 21 days, and herbicidal activity data were recorded.
(§4) The herbicidal activity data were taken visually by percent control, wherein 0 signifies no herbicidal effect and 100 signifies complete kill.

BROJA = test system: BROJA
Source text: as §1, §2, §3, §4

GOSHI = test system: GOSHI
Source text: as §1, §2, §3, §4

ECHOR = test system: ECHOR
Source text: as §1, §2, §3, §4

GLXMX = test system: GLXMX
Source text: as §1, §2, §3, §4

SORBI = test system: SORBI
Source text: as §1, §2, §3, §4

SOLNI = test system: SOLNI
Source text: as §1, §2, §3, §4

ORYSA = test system: ORYSA
Source text: as §1, §2, §3, §4

AESIN = test system: AESIN
Source text: as §1, §2, §3, §4

TRZAW = test system: TRZAW
Source text: as §1, §2, §3, §4

DIGSA = test system: DIGSA
Source text: as §1, §2, §3, §4

PANDI = test system: PANDI
Source text: as §1, §2, §3, §4

ZEAMX = test system: ZEAMX
Source text: as §1, §2, §3, §4

## CCCC(=NOC)C1=C(O)CC(c2c(C)c(C)c3c(c2C)CC(C)(C)C3)CC1=O (stereo not drawn) [Compound 6]
ABUTH; 0.016 kg/ha
  Herbicidal activity, ABUTH: 0 % inhibition
ABUTH; 0.063 kg/ha
  Herbicidal activity, ABUTH: 0 % inhibition
ABUTH; 1.000 kg/ha
  Herbicidal activity, ABUTH: 30 % inhibition
ABUTH; 1.250 kg/ha
  Herbicidal activity, ABUTH: 0 % inhibition
BROJA; 0.016 kg/ha
  Herbicidal activity, BROJA: 0 % inhibition
BROJA; 0.063 kg/ha
  Herbicidal activity, BROJA: 30 % inhibition
BROJA; 1.000 kg/ha
  Herbicidal activity, BROJA: 100 % inhibition
BROJA; 1.250 kg/ha
  Herbicidal activity, BROJA: 70 % inhibition
GOSHI; 0.016 kg/ha
  Herbicidal activity, GOSHI: 0 % inhibition
GOSHI; 0.063 kg/ha
  Herbicidal activity, GOSHI: 30 % inhibition
GOSHI; 1.000 kg/ha
  Herbicidal activity, GOSHI: 50 % inhibition
GOSHI; 1.250 kg/ha
  Herbicidal activity, GOSHI: 40 % inhibition
ECHOR; 0.016 kg/ha
  Herbicidal activity, ECHOR: 70 % inhibition
ECHOR; 0.063 kg/ha
  Herbicidal activity, ECHOR: 100 % inhibition
ECHOR; 1.000 kg/ha
  Herbicidal activity, ECHOR: 100 % inhibition
ECHOR; 1.250 kg/ha
  Herbicidal activity, ECHOR: 100 % inhibition
GLXMX; 0.016 kg/ha
  Herbicidal activity, GLXMX: 0 % inhibition
GLXMX; 0.063 kg/ha
  Herbicidal activity, GLXMX: 0 % inhibition
GLXMX; 1.000 kg/ha
  Herbicidal activity, GLXMX: 60 % inhibition
GLXMX; 1.250 kg/ha
  Herbicidal activity, GLXMX: 20 % inhibition
SORBI; 0.016 kg/ha
  Herbicidal activity, SORBI: 0 % inhibition
SORBI; 0.063 kg/ha
  Herbicidal activity, SORBI: 30 % inhibition
SORBI; 1.000 kg/ha
  Herbicidal activity, SORBI: 70 % inhibition
SORBI; 1.250 kg/ha
  Herbicidal activity, SORBI: 50 % inhibition
SOLNI; 0.016 kg/ha
  Herbicidal activity, SOLNI: 0 % inhibition
SOLNI; 0.063 kg/ha
  Herbicidal activity, SOLNI: 0 % inhibition
SOLNI; 1.000 kg/ha
  Herbicidal activity, SOLNI: 30 % inhibition
SOLNI; 1.250 kg/ha
  Herbicidal activity, SOLNI: 0 % inhibition
ORYSA; 0.016 kg/ha
  Herbicidal activity, ORYSA: 0 % inhibition
ORYSA; 0.063 kg/ha
  Herbicidal activity, ORYSA: 30 % inhibition
ORYSA; 1.000 kg/ha
  Herbicidal activity, ORYSA: 100 % inhibition
ORYSA; 1.250 kg/ha
  Herbicidal activity, ORYSA: 70 % inhibition
AESIN; 0.016 kg/ha
  Herbicidal activity, AESIN: 0 % inhibition
AESIN; 0.063 kg/ha
  Herbicidal activity, AESIN: 0 % inhibition
AESIN; 1.000 kg/ha
  Herbicidal activity, AESIN: 20 % inhibition
AESIN; 1.250 kg/ha
  Herbicidal activity, AESIN: 0 % inhibition
TRZAW; 0.016 kg/ha
  Herbicidal activity, TRZAW: 0 % inhibition
TRZAW; 0.063 kg/ha
  Herbicidal activity, TRZAW: 30 % inhibition
TRZAW; 1.000 kg/ha
  Herbicidal activity, TRZAW: 100 % inhibition
TRZAW; 1.250 kg/ha
  Herbicidal activity, TRZAW: 50 % inhibition
DIGSA; 0.016 kg/ha
  Herbicidal activity, DIGSA: 60 % inhibition
DIGSA; 0.063 kg/ha
  Herbicidal activity, DIGSA: 100 % inhibition
DIGSA; 1.000 kg/ha
  Herbicidal activity, DIGSA: 100 % inhibition
DIGSA; 1.250 kg/ha
  Herbicidal activity, DIGSA: 100 % inhibition
PANDI; 0.016 kg/ha
  Herbicidal activity, PANDI: 40 % inhibition
PANDI; 0.063 kg/ha
  Herbicidal activity, PANDI: 100 % inhibition
PANDI; 1.000 kg/ha
  Herbicidal activity, PANDI: 100 % inhibition
PANDI; 1.250 kg/ha
  Herbicidal activity, PANDI: 100 % inhibition
ZEAMX; 0.016 kg/ha
  Herbicidal activity, ZEAMX: 0 % inhibition
ZEAMX; 0.063 kg/ha
  Herbicidal activity, ZEAMX: 60 % inhibition
ZEAMX; 1.000 kg/ha
  Herbicidal activity, ZEAMX: 100 % inhibition
